Consider 24 compounds from patent publication US10668039B2, “Methods for treatment of adenoid cystic carcinoma” (THE CHILDREN'S MEDICAL CENTER CORPORATION, priority 2016, dated 2020).

The subject of one experiment is c-myb:GFP. Briefly: c-myb:GFP zebrafish blastomere embryo culture chemical screen. The format is cell-based. The conditions noted are these: approximately 30 μM, 2 days. The procedure: The inventors have developed an embryo culture system in which embryos bearing a c-myb:GFP transgenic reporter were dissociated during sphere stage at 4 hours post fertilization (hpf), and cultured in gelatin-coated 384 well plates with chemicals for 2 days until imaging for fluorescent reporter activity (FIG. 1). This fluorescent transgene is expressed in a similar pattern to the endogenous gene. […] This transgene responds to inducers of hematopoiesis, as myb is a marker of hematopoietic stem cells (HSCs).
The image analysis software (ImageJ and MatLab) was used to identify hits that downregulate c-myb:GFP zebrafish embryo cultures by a z-score less than […] and more than 70% downregulation. Hits were assessed by eye and scored for morphology. Toxic compounds that caused poor embryoid body (EB) formation were assessed a 4.
Zebrafish cell culture: Zebrafish embryo cultures were adapted from Xu (2013). Dissociated blastomere cells were grown in medium composed of 85% LDF medium, 5% heat inactivated FBS, and 10% zebrafish day 1 embryo extract. LDF medium contains 50% Leibowitz's L-15 (Invitrogen), 20% DMEM (Invitrogen), and 30% DMEM/F-12 (Invitrogen), supplemented with 0.018% sodium bicarbonate, 15 mM HEPES (Invitrogen), 1% L-Glutamine (Invitrogen), 10 nM sodium selenite (Sigma-Aldrich), 1% N2 (Invitrogen), 2% B27 (Invitrogen), 1% Penicillin-Streptomycin (Invitrogen), and 0.2% Primocin (InvivoGen).
Screening procedures: Two 384-well plates were coated with 0.1% gelatin for each chemical library plate. Males of the c-myb:GFP transgenic line were set up overnight with casper females and kept separated until morning when they were mixed for mating. Embryos were washed twice with E3 embryo water and treated with pronase to remove chorions. Dechorionated embryos were washed with E3 embryo water and collected into tubes containing media. Embryos were disassociated by shaking ˜10 times and were filtered through a 40 μm nylon mesh filter. Resulting single cells were diluted with medium and aliquoted 30 μl per well into the 384-well plates at approximately 2 embryo equivalents per well. Chemicals were dispensed immediately afterwards with an Agilent Bravo robot. Chemicals from the libraries were diluted 300 times with LDF medium and were aliquoted 10 μl per well for a final concentration of approximately 33 μM. […] Cells were cultured in a 28° C. incubator with 5% CO2. Two days later, cells were imaged by a Yokogawa Cell Voyager 7000 imager. Images were analyzed by ImageJ and MatLab and confirmed by eye. […]
Culture of dissociated blastomere cells: Stage-matched zebrafish blastomeres were dissociated at 4 hpf and grown in medium composed of 85% LDF medium, 5% FBS, and 10% embryo extract. LDF medium contains 50% Leibowitz's L-15 (Invitrogen), 20% DMEM (Invitrogen), and 30% DMEM/F-12 (Invitrogen), supplemented with 2% B27 (Gibco), 15 mM HEPES (Gibco), 1% L-glutamine (Gibco), 1% N2 (Gibco), 10 nM sodium selenite (Sigma), 100 ug/mL piperacillin (Sigma), 10 ug/mL ciprofloxacin (GenHunter), and 0.018% sodium bicarbonate (Gibco). Embryo extract was made by homogenizing 24 hpf wildtype AB embryos in HBSS (Gibco).

In another experiment the test system is ACC. The conditions noted are these: Phase II trials in ACC; cited from earlier work.
The mark [1] stands for this setting: Table 2, c-myb:GFP embryo cultures, average across two plates.
The mark [2] stands for this setting: Table 2, c-myb:GFP embryo cultures.
The mark [3] stands for this setting: Table 3, GFP signal in blastomere embryo culture screen.

Turning to `CC1(C)O[C@@H]2C[C@H]3[C@@H]4C[C@H](F)C5=CC(=O)C=C[C@]5(C)[C@H]4[C@@H](O)C[C@]3(C)[C@]2(C(=O)CO)O1` [FluniSOLIDe], in the experiment with c-myb:GFP (setting [1]), the Z-Score is on record as −3.085.
For `CC(C)C[C@H](NC(=O)[C@H](Cc1ccccc1)NC(=O)c1cnccn1)B(O)O` [Bortezomib], the “Objective Response Rate” value with ACC is recorded as 0%.
On to `CC1(C)CCC(C)(C)c2cc(C(=O)Nc3ccc(C(=O)O)cc3)ccc21` [AM-580, 4-[(5,6,7,8-Tetrahydro-5,5,8,8-tetramethyl-2-naphthalenyl)carboxamido]benzoic acid], for which the “Fold Change” value in the experiment with c-myb:GFP (setting [2]) and in the experiment on c-myb:GFP (setting [3]) was −0.9547 in each case. The Z-Score in the experiment on c-myb:GFP (setting [1]) and in the experiment with c-myb:GFP (setting [3]) was −1.631 each time.
With `COc1cc2ncnc(Nc3ccc(F)c(Cl)c3)c2cc1OCCCN1CCOCC1` [Gefitinib], in the experiment with ACC, the “Objective Response Rate” value was 0%.
In the case of `Cc1c(C(C)Nc2ncnc3sccc23)cnn1C` (stereo not drawn) [N-[1-(1,5-dimethyl-1H-pyrazol-4-yl)ethyl]thieno[2,3-d]pyrimidin-4-amine], the Z-Score in the experiment on c-myb:GFP (setting [1]) was −2.83.
For `CNC(=O)c1cc(Oc2ccc(NC(=O)Nc3ccc(Cl)c(C(F)(F)F)c3)cc2)ccn1` [Sorafenib], the “Objective Response Rate” value in the experiment on ACC is on record as 11%.
Turning to `COc1ccc2c(c1)c(CC(=O)O)c(C)n2Cc1ccc(F)cc1` [1-(4-Fluorobenzyl)-5-methoxy-2-methylindole-3-acetic acid], the Z-Score in the experiment on c-myb:GFP (setting [1]) was −1.726.
For the compound `Cc1nsc(NC(=O)N2CCCC(Cc3ccc(F)cc3)C2)n1` (stereo not drawn) [3-(4-fluorobenzyl)-N-(3-methyl-1,2,4-thiadiazol-5-yl)piperidine-1-carboxamide], in the experiment with c-myb:GFP (setting [1]), the Z-Score is reported as −3.287.
On the same count and under the same terms, the figure for `COc1ccc(N2CCN(C(=O)Nc3nc(C)ns3)CC2(C)C)cc1` [4-(4-methoxyphenyl)-3,3-dimethyl-N-(3-methyl-1,2,4-thiadiazol-5-yl)piperazine-1-carboxamide] is −2.357.
For the compound `O=C(CCCCCCC(=O)Nc1ccccc1)NO` [Vorinostat], the “Objective Response Rate” value in the experiment with ACC was 3%.
For the compound `Nc1nc2ccc(OC(F)(F)F)cc2s1` [Riluzole], the Z-Score with c-myb:GFP (setting [1]) is listed as −6.521.
In the case of `O=C(O[C@H]1[C@H](Oc2ccccc2COC(=O)C2(O)C=CCCC2=O)O[C@H](CO)[C@@H](O)[C@@H]1O)c1ccccc1` (stereo partly drawn) [TREMULACIN], the Z-Score in the experiment with c-myb:GFP (setting [1]) is −3.9299.
Take `Cc1nsc(NC(=O)N2CCC(Sc3ccccc3C)CC2)n1` [4-[(2-methylphenyl)thio]-N-(3-methyl-1,2,4-thiadiazol-5-yl)piperidine-1-carboxamide]: the Z-Score in the experiment on c-myb:GFP (setting [1]) is −2.228.
`C=C(C)[C@H]1CC=C(C(=O)O)CC1` [(−)-Perillic acid]: in the experiment with c-myb:GFP (setting [2]), the “Fold Change” value was −0.7327. Further, the Z-Score in the experiment with c-myb:GFP (setting [1]) is recorded as −1.848.
`CCCCOCCOc1nc(-c2ccc(C(=O)O)c(F)c2)sc1C` [AC 261066, 4-[4-(2-Butoxyethoxy-)-5-methyl-2-thiazolyl]-2-fluorobenzoic acid]: the “Fold Change” value in the experiment with c-myb:GFP (setting [2]) and in the experiment with c-myb:GFP (setting [3]) was −0.7734 each time. For the same compound, the Z-Score in the experiment with c-myb:GFP (setting [1]) and with c-myb:GFP (setting [3]) was −1.697 each time.
As to `O=c1c2ccccc2[nH]c(=S)n1CCN1CCC(=C(c2ccc(F)cc2)c2ccc(F)cc2)CC1` [Diacylglycerol Kinase Inhibitor II], in the experiment on c-myb:GFP (setting [1]), the Z-Score was −1.493.
Consider `O=C(c1ccc(OCCN2CCCCC2)cc1)c1c(-c2ccc(O)cc2)sc2cc(O)ccc12` [Evista], for which, in the experiment with c-myb:GFP (setting [1]), the Z-Score is −3.318.
With `Cl.FC(F)(F)c1cc(CO[C@H]2CCCN[C@H]2c2ccccc2)cc(C(F)(F)F)c1` [L-733,060 hydrochloride], in the experiment on c-myb:GFP (setting [2]), the “Fold Change” value was −0.752. In addition, the Z-Score with c-myb:GFP (setting [1]) is −1.715.
`Cc1nn(C)cc1-c1ccnc(NC(CC(C)(C)C)c2cccnc2)n1` (stereo not drawn) [4-(1,3-dimethyl-1H-pyrazol-4-yl)-N-(3,3-dimethyl-1-pyridin-3-ylbutyl)pyrimidin-2-amine]: the Z-Score in the experiment on c-myb:GFP (setting [1]) is listed as −2.29.
Regarding `O=C(Cc1cccc(O)c1)NCc1cc2cc(Cl)ccc2[nH]1` [N-[(5-chloro-1H-indol-2-yl)methyl]-2-(3-hydroxyphenyl)acetamide], the Z-Score in the experiment with c-myb:GFP (setting [1]) was −3.297.
Regarding `C/C(=C\c1ccc(C(=O)O)cc1)c1ccc2c(c1)C(C)(C)CCC2(C)C` [TTNPB, 4-[(E)-2-(5,6,7,8-Tetrahydro-5,5,8,8-tetramethyl-2-naphthalenyl)-1-propenyl]benzoic acid], the figures for the Z-Score in the experiment on c-myb:GFP (setting [1]) and in the experiment with c-myb:GFP (setting [3]) were −1.6339 and −1.634, respectively.
On to `Cc1ccc(NC(=O)c2ccc(CN3CCN(C)CC3)cc2)cc1Nc1nccc(-c2cccnc2)n1` [Imatinib], for which, in the experiment with ACC, the “Objective Response Rate” value is recorded as 0%.
For the compound `CO[C@H]1C[C@@H]2CC[C@@H](C)[C@@](O)(O2)C(=O)C(=O)N2CCCC[C@H]2C(=O)O[C@H]([C@H](C)C[C@@H]2CC[C@@H](OCCO)[C@H](OC)C2)CC(=O)[C@H](C)/C=C(\C)[C@@H](O)[C@@H](OC)C(=O)[C@H](C)C[C@H](C)/C=C/C=C/C=C/1C` [Everolimus], in the experiment with ACC, the “Objective Response Rate” value is 0%.
As for `CS(=O)(=O)CCNCc1ccc(-c2ccc3ncnc(Nc4ccc(OCc5cccc(F)c5)c(Cl)c4)c3c2)o1` [Lapatinib], the “Objective Response Rate” value in the experiment with ACC was 0%.
